We go through 32 compounds from ChEMBL document CHEMBL6103573, “Discovery of novel thienopyridine indole derivatives as inhibitors of tubulin polymerization targeting the colchicine-binding site with potent anticancer activities” (Eur J Med Chem, 2025).

For experiment [1], the system named is MGC-803. The experiment is described as follows: Antiproliferative activity against human MGC-803 cells assessed as inhibition of cell proliferation incubated for 48 hrs by MTT assay. In kind it is functional, cell-based. The settings on record: MGC-803, 48 h.
Experiment [2] concerns HCT-116. The experiment is described as follows: Antiproliferative activity against human HCT-116 cells assessed as inhibition of cell proliferation incubated for 48 hrs by MTT assay. The settings on record: HCT-116, 48 h. The experiment is classed as functional, cell-based.
Experiment [3] concerns KYSE-450. The experiment is described as follows: Antiproliferative activity against human KYSE-450 cells assessed as inhibition of cell proliferation incubated for 48 hrs by MTT assay. In kind it is functional, cell-based. The note with it: KYSE-450, 48 h.
In experiment [4] the test system is MGC-803. The experiment is described as follows: Antitumor activity against human MGC-803 cells xenografted in female BALB/c-nu nude mouse assessed as tumor inhibition rate at 20 mg/kg, ip administrated every other day for 11 times and measured after 21 days relative to control. The experiment is classed as functional. The note with it: MGC-803, 504 h, time 21 day, read-out: TGI.

Experiment [5] addresses Tubulin (Homo sapiens) (UniProt P68371+Q9H4B7+P0DPH7+P68366+Q13509+Q71U36+P04350+Q3ZCM7+P07437+P68363+Q9BQE3+Q6PEY2+Q13885+Q9BVA1+Q9BUF5). The experiment is described as follows: Inhibition of tubulin (unknown origin) polymerization assessed as decrease in fluorescence intensity at 3 micromol/L in the presence of GTP by fluorescence microplate reader. In kind it is protein-complex assay. The settings on record: dose 3.0 µmol/L.

As to `CCCN(c1ccc2c(ccn2C)c1)c1nc(Cl)nc2sccc12`, the IC50 in experiment [1] was found to be 89.2 nM; in experiment [2] it was 125 nM; in experiment [3] it was 122 nM.

As for `Cn1ccc2cc(Nc3ncnc4ccsc34)ccc21`, the IC50 in experiment [1], in experiment [2] and in experiment [3] was more than 5000 nM each time.

On to `CN(c1ccc2[nH]ccc2c1)c1nc(Cl)nc2sccc12`, for which the IC50 in experiment [1] amounted to 4.23 nM; in experiment [2], 7.28 nM; in experiment [3] it was 5.12 nM.

As to `CN(c1ccc2c(ccn2C(=O)OC(C)(C)C)c1)c1nc(Cl)nc2sccc12`, the IC50 in experiment [1] is 253 nM; in experiment [2] it was 282 nM; in experiment [3] it was 152 nM.

Turning to `CN(c1ccc2c(ccn2C)c1)c1nc(N2CCC(F)CC2)nc2sccc12`, the results for the IC50 in experiment [1], in experiment [2] and in experiment [3] were 12.9 nM, 17.7 nM and 20.7 nM, respectively.

Consider `Cn1ccc2cc(Nc3ncnc4sccc34)ccc21`, for which the IC50 in experiment [1], in experiment [2] and in experiment [3] was more than 5000 nM in each case.

On to `COc1ccc(/C=C\c2cc(OC)c(OC)c(OC)c2)cc1O` [COMBRETASTATIN A4], for which the IC50 in experiment [1] stood at 6.29 nM; in experiment [2] it was 7.38 nM; in experiment [3], 5.11 nM. In addition, the inhibition in vivo at 20 mg/kg in experiment [4] came to 27.1%.

Take `CC(C)(C)OC(=O)n1ccc2cc(Nc3nc(Cl)nc4sccc34)ccc21`: the IC50 in experiment [1], in experiment [2] and in experiment [3] was more than 5000 nM each time.

As for `CN(c1ccc2c(ccn2C)c1)c1nc(N2CCC2)nc2sccc12`, the half-inhibitory concentration (IC50) in experiment [1] is 12.3 nM; in experiment [2], 18.2 nM; in experiment [3], 16.1 nM.

Consider `CN(c1ccc2c(ccn2Cc2ccccc2)c1)c1nc(Cl)nc2sccc12`, for which the results for the IC50 in experiment [1], in experiment [2] and in experiment [3] were 893 nM, 831 nM and 921 nM, respectively.

As to `CC(=O)N1CCN(c2nc(N(C)c3ccc4c(ccn4C)c3)c3ccsc3n2)CC1`, the IC50 in experiment [1] was determined as 308 nM; in experiment [2] it was 487 nM; in experiment [3] it was 413 nM.

In the case of `COc1cc2c(c(OC)c1OC)-c1ccc(OC)c(=O)cc1[C@@H](NC(C)=O)CC2` [COLCHICINE], the IC50 was 44.1 nM in experiment [1], 49.1 nM in experiment [2] and 58.7 nM in experiment [3].

With `Cn1ccc2cc(Nc3nc(Cl)nc4ccsc34)ccc21`, the IC50 in experiment [1], in experiment [2] and in experiment [3] was more than 5000 nM throughout.

`CCN1CCN(c2nc(N(C)c3ccc4c(ccn4C)c3)c3ccsc3n2)CC1`: the IC50 in experiment [1] amounted to 288 nM; in experiment [2], 406 nM; in experiment [3], 402 nM.

On to `CN1CCN(c2nc(N(C)c3ccc4c(ccn4C)c3)c3ccsc3n2)CC1`, for which the IC50 in experiment [1] was determined as 219 nM; in experiment [2], 441 nM; in experiment [3] it was 389 nM.

Turning to `Cn1ccc2cc(Nc3nc(Cl)nc4sccc34)ccc21`, the IC50 in experiment [1], in experiment [2] and in experiment [3] was more than 5000 nM each time.

With `CN(c1ccc2c(ccn2C)c1)c1ncnc2sccc12`, the results for the IC50 in experiment [1], in experiment [2] and in experiment [3] were 5.32 nM, 5.12 nM and 25.1 nM, respectively.

Turning to `CN(c1ccc2c(ccn2C)c1)c1nc(N2CCC(O)CC2)nc2sccc12`, the IC50 stood at 20.6 nM in experiment [1], 19.6 nM in experiment [2] and 30.1 nM in experiment [3].

With `CN(c1ccc2c(ccn2C)c1)c1nc(N2CCN(C(=O)OC(C)(C)C)CC2)nc2sccc12`, the IC50 in experiment [1] turned out to be 589 nM; in experiment [2], 682 nM; in experiment [3], 597 nM.

For `CN(c1ccc2c(ccn2C)c1)c1nc(N2CCC(Cl)CC2)nc2sccc12`, the IC50 in experiment [1] was found to be 18.3 nM; in experiment [2], 29.3 nM; in experiment [3] it was 25.6 nM.

Turning to `CCN(c1ccc2c(ccn2C)c1)c1nc(Cl)nc2sccc12`, the IC50 in experiment [1] worked out at 3.67 nM; in experiment [2], 8.28 nM; in experiment [3], 7.77 nM.

Turning to `CN(c1ccc2c(ccn2C)c1)c1ncnc2ccsc12`, the values for the IC50 in experiment [1], in experiment [2] and in experiment [3] were 8.94 nM, 17.6 nM and 34.6 nM, respectively.

Consider `CCn1ccc2cc(N(C)c3nc(Cl)nc4sccc34)ccc21`, for which the IC50 worked out at 40.2 nM in experiment [1], 54.2 nM in experiment [2] and 39.8 nM in experiment [3].

In the case of `CN(c1ccc2c(ccn2C)c1)c1nc(N2CCC(C(=O)OC(C)(C)C)CC2)nc2sccc12`, the IC50 was 337 nM in experiment [1], 388 nM in experiment [2] and 422 nM in experiment [3].

In the case of `CC(=O)O[C@H]1C(=O)[C@@]2(C)[C@H]([C@H](OC(=O)c3ccccc3)[C@]3(O)C[C@H](OC(=O)[C@H](O)[C@@H](NC(=O)c4ccccc4)c4ccccc4)C(C)=C1C3(C)C)[C@]1(OC(C)=O)CO[C@@H]1C[C@@H]2O`, the inhibition result in experiment [5] is “Not active; Increase In Fluorescence Intensity Observed”.

`COC1CCN(c2nc(N(C)c3ccc4c(ccn4C)c3)c3ccsc3n2)CC1`: the IC50 amounted to 6.81 nM in experiment [1], 6.77 nM in experiment [2] and 8.33 nM in experiment [3].

In the case of `CN(c1ccc2c(ccn2C)c1)c1nc(Cl)nc2ccsc12`, the results for the IC50 in experiment [1], in experiment [2] and in experiment [3] were 4.18 nM, 3.17 nM and 16.1 nM, respectively.

As to `CN(c1ccc2c(ccn2C)c1)c1nc(N2CCCCC2)nc2sccc12`, the IC50 was determined as 14.8 nM in experiment [1], 18.2 nM in experiment [2] and 13.2 nM in experiment [3].

In the case of `CN(c1ccc2c(ccn2C)c1)c1nc(N2CCSCC2)nc2sccc12`, the IC50 in experiment [1] turned out to be 113 nM; in experiment [2], 129 nM; in experiment [3], 289 nM.

Consider `CN(c1ccc2c(ccn2C)c1)c1nc(N2CCOCC2)nc2sccc12`, for which the figures for the IC50 in experiment [1], in experiment [2] and in experiment [3] were 70.7 nM, 60.2 nM and 56.4 nM, respectively.

Regarding `CC1CCN(c2nc(N(C)c3ccc4c(ccn4C)c3)c3ccsc3n2)CC1`, the IC50 in experiment [1] came out at 8.12 nM; in experiment [2] it was 6.21 nM; in experiment [3], 9.17 nM.

For `CN(c1ccc2c(ccn2C)c1)c1nc(Cl)nc2sccc12`, the figures for the IC50 in experiment [1], in experiment [2] and in experiment [3] were 2.07 nM, 2.79 nM and 3.28 nM, respectively.
